{
  "source": "ChEMBL document CHEMBL1201862",
  "about": "“PubChem BioAssay data set” (2004)",
  "key": {"[1]": {"target": "E3 ubiquitin-protein ligase Mdm2 (Homo sapiens, UniProt Q00987)", "sequence (Q00987 whole entry)": "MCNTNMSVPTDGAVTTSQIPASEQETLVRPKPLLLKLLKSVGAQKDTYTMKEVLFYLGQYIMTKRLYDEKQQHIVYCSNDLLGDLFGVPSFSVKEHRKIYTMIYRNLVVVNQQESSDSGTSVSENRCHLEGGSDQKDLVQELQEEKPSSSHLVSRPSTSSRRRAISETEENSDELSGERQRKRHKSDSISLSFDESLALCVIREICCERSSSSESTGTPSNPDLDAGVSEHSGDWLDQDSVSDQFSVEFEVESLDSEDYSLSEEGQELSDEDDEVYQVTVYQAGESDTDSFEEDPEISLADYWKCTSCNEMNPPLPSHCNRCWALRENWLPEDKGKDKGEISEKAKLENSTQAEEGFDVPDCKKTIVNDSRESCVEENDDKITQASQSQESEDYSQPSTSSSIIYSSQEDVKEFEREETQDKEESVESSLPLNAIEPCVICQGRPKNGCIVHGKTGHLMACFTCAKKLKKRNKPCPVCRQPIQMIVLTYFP", "experiment": "enhancers of MDM2-luciferase reporter signal, concentration-effect titration, project on inhibitors of MDM2 ubiquitin ligase, cellular assay, luminescent readout, 384-well plate format (AID 1394);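 also: MDM2 E3 inhibitors raise luminescence so EC50 is for signal enhancement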", "assay_type": "functional"}, "Transthyretin": {"target": "Transthyretin (Homo sapiens, UniProt P02766)", "experiment": "Luminescence-based cell-based high throughput dose response assay to identify activators of Transthyretin (TTR) transcription.", "assay_type": "functional"}, "[2]": {"target": "T1, Replicative DNA helicase DnaB (Mycobacterium tuberculosis, UniProt P9WMR3)", "T1 sequence (P9WMR3 whole entry)": "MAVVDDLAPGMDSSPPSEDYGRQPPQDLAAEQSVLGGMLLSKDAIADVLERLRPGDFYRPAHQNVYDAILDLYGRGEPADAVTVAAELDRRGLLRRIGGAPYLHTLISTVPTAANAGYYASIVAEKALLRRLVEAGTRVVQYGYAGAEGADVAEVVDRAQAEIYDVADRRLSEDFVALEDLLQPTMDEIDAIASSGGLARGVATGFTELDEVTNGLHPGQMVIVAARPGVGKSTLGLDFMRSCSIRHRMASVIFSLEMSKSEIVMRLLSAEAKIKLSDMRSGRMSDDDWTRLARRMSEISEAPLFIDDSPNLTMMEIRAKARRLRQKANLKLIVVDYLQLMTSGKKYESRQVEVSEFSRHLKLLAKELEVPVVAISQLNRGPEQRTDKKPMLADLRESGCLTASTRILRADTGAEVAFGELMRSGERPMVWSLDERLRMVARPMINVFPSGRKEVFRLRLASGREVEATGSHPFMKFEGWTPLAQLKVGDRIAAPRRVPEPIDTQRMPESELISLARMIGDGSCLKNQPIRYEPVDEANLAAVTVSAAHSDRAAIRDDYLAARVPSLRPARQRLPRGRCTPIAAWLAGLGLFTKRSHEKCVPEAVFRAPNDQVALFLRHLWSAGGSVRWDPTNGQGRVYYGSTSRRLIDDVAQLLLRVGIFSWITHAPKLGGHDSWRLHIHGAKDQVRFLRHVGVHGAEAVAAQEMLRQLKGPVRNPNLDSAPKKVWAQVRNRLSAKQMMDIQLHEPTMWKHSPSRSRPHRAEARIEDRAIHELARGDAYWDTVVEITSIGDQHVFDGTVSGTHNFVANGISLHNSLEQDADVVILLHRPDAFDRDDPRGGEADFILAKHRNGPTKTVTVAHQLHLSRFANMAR", "experiment": "DnaB intein splicing inhibitors, dose response, biochemical, cell-free fluorescence (AID 449749)", "assay_type": "functional"}, "Protein RecA": {"target": "T2, Protein RecA (Mycobacterium tuberculosis, UniProt P9WHJ3)", "T2 sequence (P9WHJ3 whole entry)": "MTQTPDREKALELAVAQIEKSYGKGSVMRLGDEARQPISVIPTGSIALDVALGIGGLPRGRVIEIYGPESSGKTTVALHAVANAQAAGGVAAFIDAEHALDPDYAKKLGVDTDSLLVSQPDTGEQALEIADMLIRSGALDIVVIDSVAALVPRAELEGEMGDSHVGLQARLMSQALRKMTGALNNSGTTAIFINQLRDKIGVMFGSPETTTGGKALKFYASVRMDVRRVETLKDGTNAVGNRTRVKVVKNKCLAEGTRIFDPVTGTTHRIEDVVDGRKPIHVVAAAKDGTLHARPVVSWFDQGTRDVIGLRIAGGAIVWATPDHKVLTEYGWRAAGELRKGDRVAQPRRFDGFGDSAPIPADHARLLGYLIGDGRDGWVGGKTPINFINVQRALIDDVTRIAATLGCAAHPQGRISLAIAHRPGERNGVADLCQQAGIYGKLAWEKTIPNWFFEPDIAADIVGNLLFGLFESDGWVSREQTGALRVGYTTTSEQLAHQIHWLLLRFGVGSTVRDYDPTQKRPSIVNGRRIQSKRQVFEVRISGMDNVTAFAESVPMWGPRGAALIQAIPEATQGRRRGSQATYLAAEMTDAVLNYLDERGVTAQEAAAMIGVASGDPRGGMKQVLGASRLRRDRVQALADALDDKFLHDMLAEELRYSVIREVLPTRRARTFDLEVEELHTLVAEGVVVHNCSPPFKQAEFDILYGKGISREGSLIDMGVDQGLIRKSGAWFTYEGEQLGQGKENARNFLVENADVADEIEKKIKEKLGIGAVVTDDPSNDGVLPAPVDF", "experiment": "Fluorescence Cell-Free Homogeneous Dose Retest to Identify Inhibitors of RecA-Intein Splicing Activity. [Related pubchem assays (depositor defined):AID2097, AID2223, AID489010, AID492950]", "assay_type": "functional"}, "[3]": {"experiment": "P. falciparum late gametocyte killing, dose response, luminescence (AID 1117278);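 also: gametocytes exposed to compound for 24 hours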", "assay_type": "functional, cell-based"}, "[4]": {"experiment": "Jurkat T cell cytotoxicity, dose response, cytotoxicity control for P. falciparum gametocyte viability project, luminescence (AID 1117277);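 also: potency reflects loss of cellular ATP meaning fewer viable cells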", "assay_type": "functional, cell-based"}, "Vero": {"tested_on": "Vero", "experiment": "host cell cytotoxicity of antiviral hits, dose response, cytotoxicity control for West Nile virus antiviral project, secondary assay (AID 1650)", "assay_type": "functional", "details": "Chlorocebus sabaeus"}, "[5]": {"experiment": "Shn3 3'UTR reporter inhibitors, dose response, cell-based, Clone20 osteoblasts, firefly luciferase, cherry-picked (AID 624132)", "assay_type": "functional"}, "[6]": {"experiment": "control 3'UTR Renilla luciferase suppression, dose response, counter-screen for Shn3 inhibitor project, cell-based, Clone20-Shn3RL, cherry-picked (AID 624133)", "assay_type": "functional"}, "HEK293": {"tested_on": "HEK293", "experiment": "inhibitors of LMP1-driven NF-kB reporter, dose response, cell-based, HEK293, luciferase, cherry-pick (AID 588343)", "assay_type": "functional", "details": "Homo sapiens"}, "[7]": {"experiment": "cytotoxicity in HEK-293T cells, dose response, cytotoxicity control for TCR NF-kB inhibitor project, luminescence, T-cell screen hits (AID 489026);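 also: cells exposed to compound about 14 hours before the viability readout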", "assay_type": "functional, cell-based"}, "[8]": {"target": "Voltage-gated inwardly rectifying potassium channel KCNH2 (Homo sapiens, UniProt Q12809)", "sequence (Q12809 whole entry)": "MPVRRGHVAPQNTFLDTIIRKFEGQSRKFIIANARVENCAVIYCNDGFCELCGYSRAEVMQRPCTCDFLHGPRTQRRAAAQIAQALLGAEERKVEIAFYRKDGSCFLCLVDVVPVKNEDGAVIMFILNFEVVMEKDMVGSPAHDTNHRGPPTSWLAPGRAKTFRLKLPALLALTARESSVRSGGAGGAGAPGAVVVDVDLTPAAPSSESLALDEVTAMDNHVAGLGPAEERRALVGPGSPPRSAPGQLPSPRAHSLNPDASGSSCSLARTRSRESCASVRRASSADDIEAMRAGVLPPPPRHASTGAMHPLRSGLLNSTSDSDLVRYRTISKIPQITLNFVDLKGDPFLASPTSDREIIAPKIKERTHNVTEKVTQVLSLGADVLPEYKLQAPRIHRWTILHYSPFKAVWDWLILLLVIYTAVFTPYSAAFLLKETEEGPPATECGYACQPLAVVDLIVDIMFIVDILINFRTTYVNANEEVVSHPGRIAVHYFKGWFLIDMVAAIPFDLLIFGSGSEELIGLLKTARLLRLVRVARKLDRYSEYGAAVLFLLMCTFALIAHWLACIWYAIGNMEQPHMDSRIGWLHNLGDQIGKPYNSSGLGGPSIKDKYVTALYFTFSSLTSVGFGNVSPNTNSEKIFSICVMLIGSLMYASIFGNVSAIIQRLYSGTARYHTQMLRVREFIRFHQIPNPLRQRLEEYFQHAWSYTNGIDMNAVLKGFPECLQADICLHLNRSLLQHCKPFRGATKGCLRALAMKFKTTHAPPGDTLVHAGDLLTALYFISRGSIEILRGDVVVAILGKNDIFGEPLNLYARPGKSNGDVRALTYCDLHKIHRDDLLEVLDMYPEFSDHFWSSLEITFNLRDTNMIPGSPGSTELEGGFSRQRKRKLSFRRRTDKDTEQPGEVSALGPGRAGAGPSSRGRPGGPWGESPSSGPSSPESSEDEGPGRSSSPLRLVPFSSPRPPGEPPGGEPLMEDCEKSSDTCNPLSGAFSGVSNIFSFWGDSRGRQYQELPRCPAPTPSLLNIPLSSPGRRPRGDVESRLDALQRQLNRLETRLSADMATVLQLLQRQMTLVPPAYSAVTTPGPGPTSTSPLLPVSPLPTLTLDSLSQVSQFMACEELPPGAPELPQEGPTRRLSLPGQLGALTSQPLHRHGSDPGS", "experiment": "hERG protection from proarrhythmic block, potency, dose response, cell-based, thallium flux (AID 2121)", "assay_type": "ADME"}},
  "note": "Active and inactive are the calls of the source.",
  "data": [
    {"smiles": "CC(=O)Nc1ccc(S(=O)(=O)N2CCN=C2SCc2cccnc2)cc1", "values": [
      {"measurement": "EC50", "setting": "[1]", "result": "9.39 µM (not active)"}
    ]},
    {"smiles": "COc1ccc2[nH]c3c(Cl)ncnc3c2c1", "values": [
      {"measurement": "EC50", "setting": "Transthyretin", "result": "> 167 µM (inactive)"},
      {"measurement": "AC50", "setting": "[2]", "result": "> 380 µM (inactive)"},
      {"measurement": "EC50", "setting": "Protein RecA", "result": "> 380 µM (inactive)"}
    ]},
    {"smiles": "NC(=O)C1CCN(C(=O)CN2CCc3ccccc32)CC1", "values": [
      {"measurement": "IC50", "setting": "[3]", "result": "> 109 µM (inactive)"},
      {"measurement": "IC50", "setting": "[4]", "result": "> 83.3 µM (inactive)"}
    ]},
    {"smiles": "CS(=O)(=O)c1ccc(Sc2nc3ccccc3s2)c([N+](=O)[O-])c1", "values": [
      {"measurement": "CC50", "setting": "Vero", "result": "18.3 µM (active)"},
      {"measurement": "AC50", "setting": "[5]", "result": "9.73 µM (active)"},
      {"measurement": "AC50", "setting": "[6]", "result": "31.2 µM (active)"},
      {"measurement": "AC50", "setting": "HEK293", "result": "4.87 µM (active)"},
      {"measurement": "IC50", "setting": "[7]", "result": "79.5 µM (inactive)"}
    ]},
    {"smiles": "COc1ccc(C(=O)NNC(=O)C(=O)Nc2ccc(C)c(Cl)c2)cc1", "values": [
      {"measurement": "EC50", "setting": "[8]", "result": "0.06 µM (active)"}
    ]}
  ]
}
